Laboratory results taken from patent US9394555B2, “Compositions comprising a polypeptide having cellulolytic enhancing activity and a dioxy compound and uses thereof” (priority 2010, dated 2016).

B1: T. aurantiacus GH61A polypeptide: GH61A polypeptide having cellulolytic enhancing activity (SEQ ID NO: 14), recombinantly produced in Aspergillus oryzae JaL250 (protein, listed as Thermoascus aurantiacus)
chain: MSFSKIIATAGVLASASLVAGHGFVQNIVIDGKYYGGYLVNQYPYMSNPPEVIAWSTTATDLGFVDGTGYQTPDIICHRGAKPGALTAPVSPGGTVELQWTPWPDSHHGPVINYLAPCNGDCSTVDKTQLEFFKIAESGLINDDNPPGIWASDNLIAANNSWTVTIPTTIAPGNYVLRHEIIALHSAQNQDGAQNYPQCINLQVTGGGSDNPAGTLGTALYHDTDPGILINIYQKLSSYIIPGPPLYTG

Tests used:
[1] = system: T. terrestris GH61E polypeptide; assay: Microcrystalline cellulose conversion assay I (Examples 8, 9) with T. terrestris GH61E polypeptide; type: biochemical, Thielavia terrestris; settings: dioxy compound 0.3% w/w + T. terrestris GH61E polypeptide (10 mg/g) + endoglucanase II + beta-glucosidase (5 mg/g each), 96 hours
Method: (§1) A 5% microcrystalline cellulose slurry was prepared by addition of 2.5 g of AVICEL®PH101 (Sigma-Aldrich, St. Louis, Mo., USA) to a graduated 50 ml screw-cap conical tube followed by 15 ml of 1 M sodium acetate pH 5 and 1 ml of 100 mM MnSO4 and approximately 20 ml of deionizer water. Each conical tube was then mixed thoroughly by shaking/vortexing, and adjusted to 50 ml total with deionized water and mixed again. Contents of the tube were then quickly transferred to a 100 ml beaker and stirred rapidly with a magnetic stirrer. Five hundred μl aliquots of the 5% AVICEL® slurry were pipetted into wells of a 2.0 ml 96-deepwell plate (Axygen, Union City, Calif., USA) using a 1000 μl micropipette with a wide aperture tip (end of tip cut off about 2 mm from the base). Three hundred μl of either deionized water or a 1% dioxy compound solution (dissolved in deionized water) was added to each well.
(§2) The dioxy compounds assayed include caffeic acid (Sigma-Aldrich, St. Louis, Mo., USA), dichlorophenolindophenol (DCPIP; Sigma-Aldrich, St. Louis, Mo., USA), ethyl gallate (Sigma-Aldrich, St. Louis, Mo., USA), gallic acid (Sigma-Aldrich, St. Louis, Mo., USA), 3,4-dihydroxybenzoic acid (Sigma-Aldrich, St. Louis, Mo., USA), pyrocatechol (Sigma-Aldrich, St. Louis, Mo., USA), pyrogallol (Sigma-Aldrich, St. Louis, Mo., USA), sinapinic acid (3,5 dimethoxy-4-hydroxy cinnamic acid; Apin Chemicals LTD, Abingdon, UK), and tannic acid (Sigma-Aldrich, St. Louis, Mo., USA).
(§3) Enzyme mixtures were prepared and then added simultaneously to all wells in a volume of 200 μl, for a total of 1 ml in each reaction. […] All experiments reported were performed in triplicate.
(§4) After approximately 4 days, the deep-well plate was removed from the incubator and chilled overnight to 4° C. The plate was then mixed well by inversion and briefly centrifuged at 52×g in a SORVALL® RT7 centrifuge (Thermo Fisher Scientific, Waltham, Mass., USA) for 10 seconds. Samples were then mixed by pipetting, and 200 μl from each well were transferred to a MULTISCREEN® HV centrifuge filter plate assembly (Millipore, Bedford, Mass., USA). The centrifuge filter plate assembly was centrifuged at 2000 rpm in a SORVALL® RT7 centrifuge for 20 minutes. […] Sugars were detected using a refractive index detector (Agilent Technologies, Inc., Santa Clara, Calif., USA) with quantification by integration compared to purified sugar standards.
(§5) In this assay only glucose was measured since beta-glucosidase was at high levels in all samples but the controls.
(§6) A limit digest was performed to determine the total concentration accessible glucose equivalents using 100 mg of T. reesei cellulase (CELLIC™ CTec, Novozymes A/S, Bagsvaerd, Denmark) per gram cellulose, Triplicate data points were averaged and standard deviation was calculated.

[2] = system: T. aurantiacus CEL5A endoglucanase II and P. brasilianum CEL3A beta-glucosidase; assay: Microcrystalline cellulose conversion assay I (Examples 8, 9) without GH61 polypeptide; type: biochemical, Thermoascus aurantiacus; Penicillium brasilianum; settings: dioxy compound 0.3% w/w + endoglucanase II + beta-glucosidase (5 mg/g each), no GH61; 96 hours, at either 50° C. or 60° C.
Method: as §1, §2, §3, §4, §5, §6

[3] = system: Thielavia terrestris GH61E polypeptide; assay: Variable pH PASC conversion assay (Examples 29, 30) with Thielavia terrestris GH61E polypeptide; type: biochemical; settings: gallic acid 0.2% w/w + Thielavia terrestris GH61E polypeptide (10 mg/g) + beta-glucosidase (10 mg/g), 72 hours, 50° C.
[4] = target: Aspergillus fumigatus GH61B polypeptide (Aspergillus fumigatus, UniProt Q4WP32); assay: Variable pH PASC conversion assay (Examples 29, 30) with Aspergillus fumigatus GH61B polypeptide; type: biochemical; settings: gallic acid 0.2% w/w + Aspergillus fumigatus GH61B polypeptide (10 mg/g) + beta-glucosidase (10 mg/g), 72 hours, 50° C.
Chain of Aspergillus fumigatus GH61B polypeptide (Q4WP32 22-250): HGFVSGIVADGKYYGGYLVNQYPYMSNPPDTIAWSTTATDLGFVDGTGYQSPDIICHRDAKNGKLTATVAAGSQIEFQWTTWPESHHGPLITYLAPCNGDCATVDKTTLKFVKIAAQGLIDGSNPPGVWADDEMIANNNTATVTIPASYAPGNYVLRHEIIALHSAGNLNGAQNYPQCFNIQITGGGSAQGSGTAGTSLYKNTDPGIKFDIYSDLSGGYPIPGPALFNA

[5] = target: T1, T. aurantiacus GH61A polypeptide (Thermoascus aurantiacus, UniProt G3XAP7, N13Y); assay: Microcrystalline cellulose conversion assay I (Examples 8, 9) with T. aurantiacus GH61A polypeptide; type: biochemical; settings: T. aurantiacus GH61A polypeptide (10 mg per g cellulose) + endoglucanase II + beta-glucosidase (5 mg/g each), no dioxy compound, 96 hours
Method: A 5% microcrystalline cellulose slurry was prepared by addition of 2.5 g of AVICEL®PH101 (Sigma-Aldrich, St. Louis, Mo., USA) to a graduated 50 ml screw-cap conical tube followed by 15 ml of 1 M sodium acetate pH 5 and 1 ml of 100 mM MnSO4 and approximately 20 ml of deionizer water. Each conical tube was then mixed thoroughly by shaking/vortexing, and adjusted to 50 ml total with deionized water and mixed again. Contents of the tube were then quickly transferred to a 100 ml beaker and stirred rapidly with a magnetic stirrer. […]
After approximately 4 days, the deep-well plate was removed from the incubator and chilled overnight to 4° C. […] Sugars were detected using a refractive index detector (Agilent Technologies, Inc., Santa Clara, Calif., USA) with quantification by integration compared to purified sugar standards.
as §5, §6

[6] = target: T1, T. aurantiacus GH61A polypeptide; assay: Phosphoric acid swollen cellulose (PASC) conversion assay (Examples 20, 21); type: biochemical; settings: 72 hours, 50° C.
Method: A 1.0% PASC slurry was prepared as described in Example 17. Ten ml of the 1.0% PASC slurry, 10 ml of H2O, and […] of dioxy compound were thoroughly mixed by shaking,
Five hundred μl aliquots of the 0.50% phosphoric acid swollen cellulose/0.05% dioxy compound slurry were pipetted into wells of a 2.0 ml 96-deepwell plate (Axygen, Union City, Calif., USA) using a 1000 μl micropipette with a wide aperture tip (end of tip cut off about 2 mm from the base). One hundred μl of 10 mM MnSO4-500 mM sodium acetate pH 5 were then added to each well. Two hundred μl of deionized water were added to each well. Enzyme mixtures were prepared and then added simultaneously to all wells in a volume of 200 μl, for a total of 1 ml in each reaction. […] All experiments reported were performed in triplicate.
Primary analysis of the hydrolysis reactions was performed using an AGILENT® 1100 HPLC with CHEMSTATION® software equipped with an AMINEX™ HPX-87H column. After approximately 4 days, the deep-well plate was removed from the incubator and chilled overnight to 4° C. The plate was then mixed well by inversion and briefly centrifuged 52×g in a SORVALL® RT7 centrifuge for 10 seconds. Samples were then mixed by pipetting, and 200 μl from each well were transferred to a MULTISCREEN® HV centrifuge filter plate assembly. The centrifuge filter plate assembly was centrifuged at 2000 rpm in a SORVALL® RT7 centrifuge for 20 minutes. […] Sugars were detected using a refractive index detector with quantification by integration compared to purified sugar standards.
All HPLC data processing was performed using MICROSOFT EXCEL™ software. […] In this assay only glucose was measured since beta-glucosidase was at high levels in all samples but the controls. Percent conversion was calculated using Equation 1. Triplicate data points were averaged and standard deviation was calculated.
The PASC assay was performed as described in Example 20.
Data were collected and analyzed, as described in Example 20, after 72 hours of incubation at 50° C.

Row | Molecule | conversion of microcrystalline cellulose ([1]; 50° C.) | conversion of microcrystalline cellulose ([1]; 60° C.) | change in conversion of microcrystalline cellulose compared to the enzymes in the absence of the dioxy compound [2] | conversion of phosphoric acid swollen cellulose ([3]; pH 4) | conversion of phosphoric acid swollen cellulose ([3]; pH 5) | conversion of phosphoric acid swollen cellulose ([3]; pH 6) | conversion of phosphoric acid swollen cellulose ([3]; pH 7.5) | conversion of phosphoric acid swollen cellulose ([4]; pH 4) | conversion of phosphoric acid swollen cellulose ([4]; pH 5) | conversion of phosphoric acid swollen cellulose ([4]; pH 6) | conversion of phosphoric acid swollen cellulose ([4]; pH 7.5) | conversion of microcrystalline cellulose ([5]; 50° C.) | conversion of microcrystalline cellulose ([5]; 60° C.) | conversion of phosphoric acid swollen cellulose ([6]; T. aurantiacus GH61A polypeptide (20 mg/g) + A. oryzae CEL3A beta-glucosidase (20 mg/g), no dioxy compound) | conversion of PASC ([6]; T. aurantiacus GH61A polypeptide (20 mg/g) alone)
1 | O=C(O)c1cc(O)c(O)c(O)c1 [gallic acid] | 9.3±0.1% | 7.9±0.1% | no significant change | 36.3±3.2% | 41.7±3.9% | 33.7±0.2% | 23.8±3.0% | 21.7±3.0% | 23.8±1.4% | 17.3±0.3% | 5.6±0.7% | – | – | – | –
2 | B1 | – | – | – | – | – | – | – | – | – | – | – | 2.2±0.1% | 2.6±0.1% | 2.3±0.6% | 1.5±1.1%
